# Data as given in patent US10682388B2, “Targeting of PELP1 in cancer therapy” (THE BOARD OF REGENTS OF THE UNIVERSITY OF TEXAS SYSTEM, priority 2014, dated 2020).
# Experiments:
# Format in all cases: cell-based, Human
# [1] = tested on: ZRPELP1 and MCF7-PELP1 cells; assay: Mammosphere formation assay; conditions: 10 μM and 20 μM, FIG. 12
# Protocol: FIG. 12. Effect of PIP1 on mammosphere formation. Single-cell suspensions of ZR75-PELP1 were plated in triplicate wells at a density of 10,000 cells per ml in mammosphere medium in non-adherent plates. Cultures were treated with indicated concentration of PIP1 and mammospheres were counted after 7 days. ZR75PELP1 and MCF7PELP1 cells were FACS sorted for CD44-APC^high (Milteny Biotec) and CD24-PE^low (Milteny Biotec) cell surface markers. A single cell suspension of model cells ZR75-PELP1 were seeded in mammosphere media in a low adherent 96-well plate with TAT or PIP (10, 20 or 50 μM). Media containing peptide was added on day 4 and mammospheres were counted and imaged on day 8 (Shaw et al., 2012).
# [2] = tested on: ZR75 cells; assay: Estrogen-mediated growth, MTT assay; conditions: ZR75 cells stimulated with estradiol, FIG. 4C
# Protocol: FIGS. 4A-E. (FIG. 4A) ZR75vec, ZR75PELP1, MCF7vec and MCF7PELP1 cells were treated in triplicate with TAT, PIP1 or PIP1 deletions (Del1, Del2, Del3) at 10 uM every 3 days and proliferation was measured by MTT assay on day 7. (FIG. 4B) ZRPELP1 cells were transfected with ERE-luciferase and treated with TAT, PIP1, or PIP2 for 24 hours and with estradiol for 12 hours. Relative luciferase activity was measured in triplicate. (FIG. 4C) ZR75 cells were grown in 5% DCC media for 72 hours, treated with TAT or PIP1 every 3 days, and treated with estradiol 10^−7 M for 12 hours. Proliferation was measured in triplicate on day 7 by MTT assay at 595 nm. (FIG. 4D) MCF7-Letrozole resistant cells were grown in 5% DCC media for 72 hours, treated with TAT, PIP1 or PIP2 every 3 days, and letrozole or estradiol 10^−7 M for 12 hours. Proliferation was measured in triplicate on day 7 by MTT assay at 595 nm. […] Proliferation was measured in triplicate on day 7 by MTT assay at 595 nm.
# Cell proliferation rates were measured by using MTT Cell Viability Assay in 96-well plates. […] After an overnight incubation, cells were treated with varying concentrations of the peptides for 3-7 days and growth inhibition was determined by using traditional MTT assay (Sigma) following manufacturer's instructions.
# [3] = tested on: ERE-luciferase in ZR75 cells; assay: ERE-luciferase reporter gene assay in ZR75 cells transfected with PELP1 and/or G9a; conditions: FIG. 2D
# Protocol: FIGS. 2A-D. (FIG. 2A) Immunoprecipitation was performed on nuclear lysates obtained from ZRPELP1 cells grown in 5% DCC for 72 hours and treated with estradiol 10^−7 M for 12 hours. PELP1 was immunoprecipitated and western blotting was performed for PELP1 and G9a expression with IgG as the control. (FIG. 2B) Various fragments of PELP1 bound to glutathione beads were incubated with recombinant G9a for 2 hours. Beads were washed, run on an SDS-PAGE gel and immunoblotted for G9a expression. GST tag alone is shown as control. (FIG. 2C) Recombinant G9a-GST was bound to glutathione beads and incubated with purified PELP1 and peptides for 2 hours. Beads were washed and run on SDS-PAGE gel. (FIG. 2D) ZR75 cells were transfected with ERE-luciferase, PELP1 and/or G9a plasmids and treated with peptide for 24 hours and estradiol 10^−7 M for 12 hours. Relative luciferase activity is shown.
# Model cells were seeded in 6-well plates. After overnight incubation, the cells were transfected with ERE-Luc plasmids using fugene for 6 h. Then, 24 hours after transfection, cells were incubated in 5% DCC media for estrogen starvation and then treated with TAT or PIP1/PIP2 for an additional 24 hours and estradiol (10^−8) for 12 hours. […] Luciferase activity was measured by using the luciferase assay system (Promega, Madison, Wis.).
# [4] = tested on: ZRPELP1 cells; assay: Soft agar colony formation assay; conditions: 10 μM every three days, colonies counted day 14, FIG. 5C
# Protocol: FIGS. 5A-D. (FIG. 5A) ZR75vec, ZR75PELP1, MCF7vec and MCF7PELP1 cells were plated in the top of a Boyden chamber transwell, treated with TAT, PIP1 or PIP2 (10 μM) and absorbance was measured at 12 hours in triplicate. (FIG. 5B) MCF7vec, MCFP7ELP1, ZR75vec and ZR75PELP1 cells were treated in triplicate with TAT, PIP1 or PIP2 (10 μM) every 3 days, fixed with methanol on day 10 and stained with crystal violet. Average colonies per well are shown. (FIG. 5C) ZR75vec and ZR75PELP1 cells were plated in triplicate in agar with 8% RPMI with TAT, PIP1 or PIP2 (10 μM). Colonies were counted on day 14, representative images are shown on right. (FIG. 5D) ZR75 cells were plated on coverslips in triplicate and treated with TAT or PIP1 (10 μM) for 24 hours. Cells were fixed with paraformaldehyde and labeled with TUNEL and DAPI, representative images are shown on right.
# Model cells MCF7, MCF7-PELP1, ZR75 and ZR75-PELP1 were seeded in a 0.6% agar solution with RPMI/10% FBS over a base agar layer in 35 mm plates in triplicate with TAT, PIP1, or PIP2 (10 μM). Media with peptide was added every 3 days and colonies were counted after 14 days.
sequence,measurement,setting,value
GRKKRRQRRRGGMVEFRWSCPGRRKAKA [PIP1],number of mammospheres,[1],significant decrease in the number of mammospheres
same,size of the mammospheres,[1],substantially decreased
same,estrogen-mediated growth,[2],inhibition of the estrogen-mediated growth
same,estrogen response synergistically activated by PELP1 and G9a (ERE-luciferase),[3],inhibited
same,colony formation in soft agar (anchorage independence),[4],substantial decrease in colony formation
